Experimental findings from patent publication US8183296B2, “Pesticide phenyloxy substituted phenylamidine derivatives” (Bayer Cropscience AG, priority 2005, dated 2012) are described below.

Bounds are passed on as bounds.

The nature of data set [1]: logP by HPLC on reversed-phase column (C 18), EEC Directive 79/831 Annex V.A8. The class given is physicochemical.
Test in data set [2]: as above
In kind it is physicochemical. The following applies: reversed-phase HPLC column (C 18), C 18, 40° C., 0.1% aqueous formic acid and acetonitrile, read-out: logPa. The procedure:
Temperature: 40° C.; Mobile phases: 0.1% aqueous formic acid and acetonitrile; linear gradient from 10% acetonitrile to 90% acetonitrile.
Calibration was carried out using unbranched alkan-2-ones (comprising 3 to 16 carbon atoms) with known logP values (determination of the logP values by the retention times using linear interpolation between two successive alkanones).

Data set [3] deals with Puccinia recondita f. Sp. tritici. Nature of the data set: In vivo preventive test on Puccinia recondita f. Sp. tritici (wheat brown rust). The note with it: topical, 240 h, 1000 ppm of active ingredient, evaluated 10 days after inoculation, read-out: efficacy. How it is done: In Vivo Preventive Test on Puccinia recondita f. Sp. tritici (Wheat Brown Rust)
(§1) To produce a suitable preparation of active compound, 1 part by weight of active compound is mixed with the stated amounts of solvent and emulsifier, and the concentrate is diluted with water to the desired concentration.
To test for preventive activity, young plants are […]. After the spray coating has dried on, the plants are sprayed with the preparation of active compound at the stated rate of application. The plants remain for 24 hours in an incubation cabinet at 20° C. and a relative atmospheric humidity of 100%.
The plants are placed in a greenhouse at a temperature of approximately 20° C. and a relative atmospheric humidity of approximately 80% to promote the development of rust pustules.
The test is evaluated 10 days after the inoculation. 0% means an efficacy which corresponds to that of the control, while an efficacy of 100% means that no disease is observed.

Data set [4] deals with Erysiphe graminis f.sp. hordei. Nature of the data set: In vivo preventive test on Erysiphe graminis (powdery mildew on barley). The note with it: Blumeria graminis, topical, 168 h, 1000 ppm of active ingredient, evaluated 7 days after inoculation, read-out: efficacy. The procedure:
In Vivo Preventive Test on Erysiphe gramini (Powdery Mildew on Barley)
To produce a suitable preparation of active compound, 1 part by weight of active compound or active compound combination is mixed with the stated amounts of solvent and emulsifier, and the concentrate is diluted with water to the desired concentration.
To test for preventive activity, young plants are sprayed with the preparation of active compound or active compound combination at the stated rate of application.
After the spray coating has dried on, the plants are dusted with spores of Erysiphe graminis f.sp. hordei
The plants are placed in a greenhouse at a temperature of approximately 20° C. and a relative atmospheric humidity of approximately 80% to promote the development of mildew pustules.
(§2) The test is evaluated 7 days after the inoculation. 0% means an efficacy which corresponds to that of the control, while an efficacy of 100% means that no disease is observed.

The test system of a further data set is Alternaria solani. Nature of the data set: In vivo protective test on Alternaria solani (leaf spot of tomato). The note with it: topical, 168 h, 500 ppm of active ingredient, evaluated 7 days after inoculation, read-out: efficacy. How it is done:
In Vivo Protective Test on Alternaria solani (Leaf Spot of Tomato)
as §1
To test for protective activity, young plants are sprayed with the preparation of active compound at the stated rate of application. After the spray coating has dried on, the plants are inoculated with an aqueous spore suspension of Alternatia solani. The plants remain for one day in an incubation cabinet at approximately 20° C. and a relative atmospheric humidity of 100%. Then the plants are placed in an incubation cabinet at approximately 20° C. and a relative atmospheric humidity of 96%.
The test is evaluated 7 days after the inoculation. 0% means an efficacy which corresponds to that of the control while an efficacy of 100% means that no disease is observed.

Another data set has as its system Podosphaera leucotricha. Nature of the data set: In vivo protective test on Podosphaera leucotricha (apples). The following applies: topical, 240 h, 100 ppm of active ingredient, evaluated 10 days after inoculation, read-out: efficacy. An excerpt:
In Vivo Protective Test on Podosphaera leucotricha (Apples) [table] […] To test for protective activity, young plants are sprayed with the preparation of active compound at the stated rate of application. After the spray coating has dried on, the plants are inoculated with an aqueous spore suspension of the causal agent of apple mildew (Podosphaera leucotricha).

In a further data set the test system is Sphaerotheca fuliginea. Kind of data set: In vivo protective test on Sphaerotheca fuliginea (cucumbers). The note with it: Podosphaera fuliginea, topical, 168 h, 100 ppm of active ingredient, evaluated 7 days after inoculation, read-out: efficacy. The procedure: In Vivo Protective Test on Sahaerotheca fuliginea (Cucumbers)
as §1
To test for protect activity, young plants are sprayed with the preparation of active compound at the stated rate of application. After the spray coating has dried on, the plants are inoculated with an aqueous spore suspension of Sphaerotheca fuliginea. The plants are then placed in a greenhouse at approximately 23° C. and a relative atmospheric humidity of approximately 70%.
as §2

As to `Cc1cc(Oc2ccc(Cl)c(C(C)(C)C)c2)c(Cl)cc1N` [4-(3-t-butyl-4-chlorohenoxy)-5-chloro-2-methylaniline], the “log P (pH 2.3)” value in data set [1] turned out to be 5.68.

In the case of `Cc1cc([N+](=O)[O-])c(C)cc1Oc1ccc(Cl)c(C(C)(C)C)c1` [4-(3-t-butyl-4-chlorphenoxy)-2,5-dimethylnitrobenzene], the “log P (pH 2.3)” value in data set [1] is recorded as 6.32.

Take `Cc1cc(Oc2ccc(Cl)c(C(C)(C)C)c2)c(C)cc1N` [4-(3-t-butyl-4-chlorphenoxy)-2,5-xylidine]: the “log P (pH 2.3)” value in data set [1] stood at 4.38.

Turning to `Cc1cc(Oc2ccc(Cl)c(C(C)(C)C)c2)c(Cl)cc1[N+](=O)[O-]` [4-(3-t-butyl-4-chlorphenoxy)-5-chloro-2-methylnitrobenzene], the “log P (pH 2.3)” value in data set [1] is on record as 6.32.

For `CCN(C)C=Nc1cc(Cl)c(Oc2ccc(Cl)c(C(C)(C)C)c2)cc1C` [Example 1, N-Ethyl-N-methyl-N′-[4-(3-t-butyl-4-chlorphenoxy)-5-chloro-2-methylphenyl]formamidine], the “log P (pH 2.3)” value in data set [1] was found to be 2.80.

For the compound `CCN(C)C=Nc1cc(C)c(Oc2ccc(Cl)c(C(C)(C)C)c2)cc1C` [Example 2, N-Ethyl-N-methyl-N′-[4-(3-t-butyl-4-chlorphenoxy)-2,5-xylyl]formamidine], the “log P (pH 2.3)” value in data set [1] was 3.04.

For `CCc1cc(Oc2cc(C)c(/N=C/N(C)CC)cc2C)ccc1Cl` [Example 5], the chromatographic logP in data set [2] came out at 2.56. For the same compound, the pest or weed control at 1000 ppm in data set [3] and in data set [4] was no less than 70% each time. Besides, in the data set on Alternaria solani, the pest or weed control at 500 ppm is no less than 70%. The pest or weed control at 100 ppm with Podosphaera leucotricha and with Sphaerotheca fuliginea was no less than 70% in each case.

With `CCCN(C)/C=N/c1cc(C)c(Oc2ccc(Cl)c(C(C)(C)C)c2)cc1C` [Example 8], the chromatographic logP in data set [2] was found to be 3.3. Besides, the pest or weed control at 1000 ppm in data set [3] and in data set [4] was no less than 70% each time. Besides, the pest or weed control at 500 ppm in the data set with Alternaria solani was no less than 70%. In addition, the pest or weed control at 100 ppm with Podosphaera leucotricha and with Sphaerotheca fuliginea was no less than 70% each time.

Regarding `Cc1cc(Oc2ccc(Cl)c(C(C)(C)C)c2)c(C)cc1/N=C/N(C)C(C)C` [Example 9], the chromatographic logP in data set [2] worked out at 3.42. Besides, the pest or weed control at 1000 ppm in data set [3] and in data set [4] was no less than 70% in each case. For the same compound, the pest or weed control at 500 ppm with Alternaria solani is no less than 70%. Further, the pest or weed control at 100 ppm in the data set with Podosphaera leucotricha and with Sphaerotheca fuliginea was no less than 70% in each case.

Consider `CCN(C)/C(S)=N/c1cc(C)c(Oc2ccc(Cl)c(C(C)(C)C)c2)cc1C` [Example 10], for which the chromatographic logP in data set [2] came to 5.12. Besides, the pest or weed control at 1000 ppm in data set [4] was no less than 70%. Moreover, the pest or weed control at 500 ppm in the data set on Alternaria solani was no less than 70%. Also, the pest or weed control at 100 ppm with Podosphaera leucotricha and with Sphaerotheca fuliginea was no less than 70% throughout.

As to `CCc1cc(Oc2cc(C)c(/N=C/N(C)CC)cc2Cl)ccc1Cl` [Example 13], the chromatographic logP in data set [2] stood at 2.78. Moreover, the pest or weed control at 1000 ppm in data set [3] and in data set [4] was no less than 70% each time. Besides, the pest or weed control at 500 ppm with Alternaria solani was no less than 70%. For the same compound, the pest or weed control at 100 ppm in the data set on Podosphaera leucotricha and in the data set on Sphaerotheca fuliginea was no less than 70% in each case.

In the case of `CCCN(C)/C=N/c1cc(C)c(Oc2ccc(Cl)c(CC)c2)cc1C` [Example 14], the chromatographic logP in data set [2] is 2.76. Moreover, the pest or weed control at 1000 ppm in data set [3] and in data set [4] was no less than 70% in each case. The pest or weed control at 500 ppm in the data set with Alternaria solani was no less than 70%. Also, the pest or weed control at 100 ppm in the data set with Podosphaera leucotricha and in the data set with Sphaerotheca fuliginea was no less than 70% in each case.

`CCCN(C)/C=N/c1cc(C)c(Oc2ccc(Br)c(C(C)C)c2)cc1C` [Example 17]: the chromatographic logP in data set [2] came to 2.91. Moreover, the pest or weed control at 1000 ppm in data set [3] and in data set [4] was no less than 70% in each case. Moreover, the pest or weed control at 500 ppm with Alternaria solani was no less than 70%. In addition, the pest or weed control at 100 ppm in the data set on Podosphaera leucotricha and in the data set with Sphaerotheca fuliginea was no less than 70% throughout.

For `CCN(C)/C=N/c1cc(C)c(Oc2ccc(Br)c(C(C)C)c2)cc1C` [Example 19], in data set [2], the chromatographic logP amounted to 3.04. Also, the pest or weed control at 1000 ppm in data set [3] and in data set [4] was no less than 70% throughout. Further, the pest or weed control at 500 ppm in the data set on Alternaria solani was no less than 70%. Further, the pest or weed control at 100 ppm in the data set on Podosphaera leucotricha and in the data set on Sphaerotheca fuliginea was no less than 70% each time.

In the case of `CCN(C)/C=N/c1cc(Cl)c(Oc2ccc(Cl)c(C(C)C)c2)cc1C` [Example 20], in data set [2], the chromatographic logP stood at 2.95. The pest or weed control at 1000 ppm in data set [3] and in data set [4] was no less than 70% each time. Also, the pest or weed control at 500 ppm in the data set on Alternaria solani is no less than 70%. Also, the pest or weed control at 100 ppm with Podosphaera leucotricha and in the data set with Sphaerotheca fuliginea was no less than 70% each time.

For `CCCN(C)/C=N/c1cc(Cl)c(Oc2ccc(Cl)c(C(C)C)c2)cc1C` [Example 21], the chromatographic logP in data set [2] was determined as 3.03. Also, the pest or weed control at 1000 ppm in data set [3] and in data set [4] was no less than 70% each time. Also, in the data set with Alternaria solani, the pest or weed control at 500 ppm is no less than 70%. In addition, the pest or weed control at 100 ppm in the data set with Podosphaera leucotricha and in the data set on Sphaerotheca fuliginea was no less than 70% in each case.

For the compound `Cc1cc(Oc2ccc(Cl)c(C(C)C)c2)c(Cl)cc1/N=C/N(C)C(C)C` [Example 22], the chromatographic logP in data set [2] turned out to be 3.17. Further, the pest or weed control at 1000 ppm in data set [3] and in data set [4] was no less than 70% each time. In the data set with Alternaria solani, the pest or weed control at 500 ppm is no less than 70%. The pest or weed control at 100 ppm in the data set on Podosphaera leucotricha and in the data set on Sphaerotheca fuliginea was no less than 70% in each case.

Consider `CCCN(C)/C=N/c1cc(Cl)c(Oc2ccc(Cl)c(C(C)(C)C)c2)cc1C` [Example 25], for which the chromatographic logP in data set [2] turned out to be 3.27. For the same compound, the pest or weed control at 1000 ppm in data set [3] and in data set [4] was no less than 70% each time. Also, the pest or weed control at 500 ppm in the data set with Alternaria solani is no less than 70%. The pest or weed control at 100 ppm in the data set on Podosphaera leucotricha and in the data set with Sphaerotheca fuliginea was no less than 70% each time.

As for `CCN(C)/C=N/c1cc(Cl)c(Oc2ccc(Cl)c(C(C)(C)C)c2)cc1C` [Example 26], the chromatographic logP in data set [2] was 3.02. Besides, the pest or weed control at 1000 ppm in data set [3] and in data set [4] was no less than 70% each time. Further, in the data set on Alternaria solani, the pest or weed control at 500 ppm was no less than 70%. In addition, the pest or weed control at 100 ppm in the data set on Podosphaera leucotricha and in the data set on Sphaerotheca fuliginea was no less than 70% each time.

As to `Cc1cc(Oc2ccc(Cl)c(C(C)C)c2)c(C)cc1/N=C/N(C)C(C)C` [Example 28], in data set [2], the chromatographic logP is 2.74. Moreover, the pest or weed control at 1000 ppm in data set [3] and in data set [4] was no less than 70% each time. The pest or weed control at 500 ppm with Alternaria solani was no less than 70%. Further, the pest or weed control at 100 ppm in the data set with Podosphaera leucotricha and with Sphaerotheca fuliginea was no less than 70% each time.

Consider `CCN(C)/C=N/c1cc(Cl)c(Oc2ccc(Br)c(C(C)C)c2)cc1C` [Example 30], for which the chromatographic logP in data set [2] was 2.84. The pest or weed control at 1000 ppm in data set [3] and in data set [4] was no less than 70% throughout. In addition, in the data set on Alternaria solani, the pest or weed control at 500 ppm was no less than 70%. Besides, the pest or weed control at 100 ppm with Podosphaera leucotricha and in the data set with Sphaerotheca fuliginea was no less than 70% in each case.

On to `CCc1cc(Oc2cc(C)c(/N=C/N(C)C(C)C)cc2C)ccc1Cl` [Example 32], for which the chromatographic logP in data set [2] is 2.75. Further, the pest or weed control at 1000 ppm in data set [3] and in data set [4] was no less than 70% each time. In the data set on Alternaria solani, the pest or weed control at 500 ppm was no less than 70%. Moreover, the pest or weed control at 100 ppm with Podosphaera leucotricha and in the data set with Sphaerotheca fuliginea was no less than 70% each time.
